Like-named read-outs stand apart in the source and are kept apart here.
Assays:
Hct116 = assay: Cell viability, Hct116 colon cancer cells; assay type: cell-based, human
H23 = assay: Cell viability, H23 lung cancer cells; assay type: cell-based, human
Ovcar3 = assay: Cell viability, Ovcar3 ovary cancer cells; assay type: cell-based
H322 cells = assay: Cell viability, H322 lung cancer cells; assay type: cell-based, human
H2009 = assay: Cell viability, H2009 lung cancer cells; assay type: cell-based, human
Hey = assay: Cell viability, Hey ovary cancer cells; assay type: cell-based
miapac = assay: Cell viability, miapac pancreatic cancer cells; assay type: cell-based, human
T29Kt1 cells [1] = assay: cells; conditions: Homo sapiens, T29Kt1, read-out: IC50 in T29k cells, Table 1
A549CK8 = assay: Cell viability, A549CK8 lung cancer cells; assay type: cell-based, human
AsPC-1 = assay: Cell viability, AsPC-1 pancreatic cancer cells; assay type: cell-based, human
Capanc-1 = assay: Cell viability, Capanc-1 pancreatic cancer cells; assay type: cell-based, human
DLD1 = assay: Cell viability, DLD1 colon cancer cells; assay type: cell-based, human
H1395 = assay: Cell viability, H1395 lung cancer cells; assay type: cell-based, human
H1299 cells = assay: Cell viability, H1299 lung cancer cells; assay type: cell-based, human
Ovca429 = assay: Cell viability, Ovca429 ovary cancer cells; assay type: cell-based
A549 cells = assay: Cell viability, A549 lung cancer cells; assay type: cell-based, human
T29 cells [2] = assay: cells; conditions: Homo sapiens, T29, read-out: IC50 in T29 cells
HKE3 = assay: Cell viability, HKE3 colon cancer cells; assay type: cell-based, human; conditions: for IC50: Homo sapiens; for IC50 (−LogM): HKE3, Colon
H2122 = assay: Cell viability, H2122 lung cancer cells; assay type: cell-based, human
H1933 = assay: Cell viability, H1933 lung cancer cells; assay type: cell-based, human
Heb46 = assay: Cell viability, Heb46 kidney cells; assay type: cell-based
SKOV3 = assay: Cell viability, SKOV3 ovary cancer cells; assay type: cell-based
H460 cells [3] = assay: cells; conditions: Homo sapiens
Ovcar443 = assay: Cell viability, Ovcar443 ovary cancer cells; assay type: cell-based
H226B cells = assay: Cell viability, H226B lung cancer cells; assay type: cell-based, human; conditions: for IC50: Homo sapiens; for IC50 (−LogM): H226B, Lung
Heb44 = assay: Cell viability, Heb44 kidney cells; assay type: cell-based
CT116P53 = assay: Cell viability, CT116P53 colon cancer cells; assay type: cell-based, human
H2087 = assay: Cell viability, H2087 lung cancer cells; assay type: cell-based, human
Sw620 = assay: Cell viability, Sw620 colon cancer cells; assay type: cell-based, human; conditions: Sw620, Colon
H460 cells [4] = system: H460 cells
T29Kt1 cells [5] = system: T29Kt1 cells
T29 cells [6] = system: T29 cells
PKCiota = assay: Immunohistochemical staining, subcellular localization of PKCiota; assay type: cell-based, human; conditions: 12 h; comparators at doses giving similar cell killing
Method: Effects on subcellular localization of PKCiota. […] To further investigate molecular mechanisms of Oncrasin action the inventors studied the subcellular localization of several molecules involved in Ras-signaling pathway because the functions of Ras and other proteins are directly related to their subcellular localizations. For this purpose, T29Kt1 or H460 cells were seeded on cover glass slides and treated with DMSO or Oncrasin-1 for 12 h. Cells were then fixed with paraformaldehyde, permeabilized with Triton X-100 and stained with various antibodies for immunohistochemical examination. […] Nevertheless, substantial subcellular localization change was detected for PKCiota after Oncrasin-1 treatment (FIG. 6). In both H460 and T29Kt1 cells, both PKCiota and PKCzeta were diffusely distributed in cells with high concentration on cell membrane in nucleus, consisting with previous reports that aPKC contains both nuclear localization signal (NLS) and nuclear export signal (NES), and can shuttle between cytoplasm and nucleus, which was regulated by intramolecular conformational changes, phosphorylation or by treatment with growth factors (Perander et al., 2001; White et al., 2002; Neri et al., 1999). […] Such aggregation of PKCiota was not observed in Oncrasin-resistant T29 and H1299 cells. The inventors then tested whether PKCiota aggregation in the nucleus can be induced by other chemotherapeutic agents such as 5-fluorouracil (5-FU) and paclitaxol.

[7] = Homo sapiens, read-out: IC50 (−LogM) (converted)
[8] = at any of the doses tested (dose response)
[9] = up to 100 μM, the highest concentration tested

O=Cc1cn(Cc2cccc([N+](=O)[O-])c2)c2ccccc12 [Oncrasin K68, 1-(3-nitrobenzyl)-1H-indole-3-carbaldehyde]
IC50 (Hct116; Homo sapiens, HCT-116, read-out: IC50 (−LogM), Hct116, Colon (converted)): 0.158 µM | IC50 (H23; Homo sapiens, NCI-H23, read-out: IC50 (−LogM) (converted)): 31.6 µM | IC50 (Ovcar3; Homo sapiens, OVCAR-3): 0.158 µM | IC50 (H322 cells; Homo sapiens, NCI-H322, read-out: IC50 (−LogM) (converted)): 31.6 µM | IC50 (H2009; Homo sapiens, NCI-H2009, read-out: IC50 (−LogM) (converted)): 31.6 µM | IC50 (Hey): < 31.6 µM | IC50 (miapac; Homo sapiens, Pancreatic cancer cell, read-out: IC50 (−LogM) (converted)): < 31.6 µM | IC50 (T29Kt1 cells [1]): 0.501 µM | IC50 (A549CK8; [7]): 3.16 µM | IC50 (AsPC-1; Homo sapiens, ASPC1, read-out: IC50 (−LogM), ASPC1, Pancrease (converted)): 2 µM | IC50 (Capanc-1; Homo sapiens, Pancreatic cancer cell, read-out: IC50 (−LogM), capanc1, Pancrease (converted)): 31.6 µM | IC50 (DLD1; Homo sapiens, DLD-1, read-out: IC50 (−LogM) (converted)): < 31.6 µM | IC50 (H1395; Homo sapiens, NCI-H1395, read-out: IC50 (−LogM) (converted)): < 31.6 µM | IC50 (H1299 cells; Homo sapiens, NCI-H1299, read-out: IC50 (−LogM), h1299, Lung (converted)): 10 µM | IC50 (Ovca429): 31.6 µM | IC50 (A549 cells; Homo sapiens, A549, read-out: IC50 (−LogM), A549, Lung (converted)): 5.01 µM | IC50 (T29 cells [2]): 31.6 µM | IC50 (HKE3; read-out: IC50 (−LogM), HKE3, Colon, first HKE3 line (converted)): 0.1 µM | IC50 (HKE3; read-out: IC50 (−LogM), HKE3, Colon, second HKE3 line (converted)): 0.398 µM | IC50 (H2122; Homo sapiens, NCI-H2122, read-out: IC50 (−LogM) (converted)): 1 µM | IC50 (H1933; [7]): 25.1 µM | IC50 (Heb46): 0.2 µM | IC50 (SKOV3; Homo sapiens, SK-OV-3): 1 µM | IC50 (H460 cells [3]; NCI-H460, read-out: IC50 (−LogM), H460, Lung (converted)): 0.0398 µM | IC50 (H460 cells [3]; NCI-H460, read-out: IC50 in H460 cells, Table 1): 0.0398 µM | IC50 (Ovcar443): 10 µM | IC50 (H226B cells; read-out: IC50 (−LogM), H226B, Lung, first H226B line (converted)): 0.00251 µM | IC50 (H226B cells; read-out: IC50 (−LogM), H226B, Lung, second H226B line (converted)): 0.0631 µM | IC50 (Heb44): 0.01 µM | IC50 (CT116P53; [7]): < 31.6 µM | IC50 (H2087; Homo sapiens, NCI-H2087, read-out: IC50 (−LogM) (converted)): 31.6 µM

OCc1cn(Cc2ccc(Br)cc2)c2ccccc12 [Oncrasin K73, 1H-Indole-3-methanol, 1-{(4-bromophenyl)methyl]-(9CI)]
IC50 (−LogM) (Hct116; Hct116, Colon): 5.5 −LogM | IC50 (−LogM) (H23; H23, Lung): 4.5 −LogM | IC50 (−LogM) (Ovcar3): 5.9 −LogM | IC50 (−LogM) (H322 cells; H322, Lung): >4.5 −LogM | IC50 (−LogM) (H2009; H2009, Lung): >4.5 −LogM | IC50 (−LogM) (Hey): 4.5 −LogM | IC50 (−LogM) (miapac; miapac, Pancrease): >4.5 −LogM | IC50 (−LogM) (A549CK8; A549CK8, Lung): 5.5 −LogM | IC50 (−LogM) (AsPC-1; ASPC1, Pancrease): 5.5 −LogM | IC50 (−LogM) (Capanc-1; capanc1, Pancrease): 5.5 −LogM | IC50 (−LogM) (Sw620): >4.5 −LogM | IC50 (−LogM) (DLD1; DLD1, Colon): >4.5 −LogM | IC50 (−LogM) (H1395; H1395, Lung): >4.5 −LogM | IC50 (−LogM) (H1299 cells; h1299, Lung): >4.5 −LogM | IC50 (−LogM) (Ovca429): 5.5 −LogM | IC50 (−LogM) (H460 cells [4]; H460, Lung): 8.5 −LogM | IC50 (−LogM) (A549 cells; A549, Lung): >4.5 −LogM | IC50 (−LogM) (HKE3; first HKE3 line): 6.5 −LogM | IC50 (−LogM) (HKE3; second HKE3 line): 6.1 −LogM | IC50 (−LogM) (H2122; H2122, Lung): 5.6 −LogM | IC50 (−LogM) (H1933; H1933, Lung): 4.5 −LogM | IC50 (−LogM) (Heb46): 6.1 −LogM | IC50 (−LogM) (SKOV3): 5.5 −LogM | IC50 (−LogM) (Ovcar443): 4.8 −LogM | IC50 in T29k cells (T29Kt1 cells [5]; Table 1, value is the negative log10 of mol/L): 6.4 | IC50 (−LogM) (H226B cells; first H226B line): 7 −LogM | IC50 (−LogM) (H226B cells; second H226B line): 5.8 −LogM | IC50 (−LogM) (Heb44): 7.4 −LogM | IC50 (−LogM) (CT116P53; CT116P53, Colon): >4.5 −LogM | IC50 (−LogM) (H2087; H2087, Lung): 4.5 −LogM

OCc1c[nH]c2ccccc12 [indole-3-carbinol, reference compound]
toxicity to T29Ht1 (T29H) cells (T29Ht1 cells; [8]): did not induce any cytotoxicity | cytotoxicity in T29Ht1 cells (T29Ht1 cells; [9]): did not have any cytotoxic effects | toxicity to T29 cells (T29 cells [6]; [8]): did not induce any cytotoxicity | cytotoxicity in T29 cells (T29 cells [6]; [9]): did not have any cytotoxic effects | cytotoxicity in H460 cells (H460 cells [4]; up to 100 μM): did not have any cytotoxic effects | toxicity to T29K cells (T29Kt1 cells [5]; same dose range as tested for the leader): did not induce any cytotoxicity | cytotoxicity in T29Kt1 cells (T29Kt1 cells [5]; up to 100 μM): did not have any cytotoxic effects

CC(=O)O[C@H]1C(=O)[C@@]2(C)[C@H]([C@H](OC(=O)c3ccccc3)[C@]3(O)C[C@H](OC(=O)[C@H](O)[C@@H](NC(=O)c4ccccc4)c4ccccc4)C(C)=C1C3(C)C)[C@]1(OC(C)=O)CO[C@@H]1C[C@@H]2O [taxol, paclitaxol, reference compound]
PKCiota aggregation in the nucleus, T29Kt1 cells (PKCiota): did not induce PKCiota aggregation

— US8883841B2, “Oncogenic ras-specific cytotoxic compound and methods of use thereof” (The Board of Regents of the University of Texas System, priority 2005, dated 2014)
